Experimental data: patent US20230123585A1, “COMPOSITIONS AND METHODS FOR TREATING OR PREVENTING CANCER USING DEUBIQUITINASE INHIBITORS” (The University of Chicago, priority 2020, published 2023)

Assays:
[1] = test system: METTL3 / m^6A methyltransferase complex in A375 cells; experiment: Immunoblot of METTL3 / m^6A methyltransferase complex protein in A375 cell lysates; format: cell-based, human
Protocol: FIGS. 6A-6H: Phosphorylation of the m^6A Methyltransferase Complex May Affect Tumorigenesis. (A) Lysates of A375 stable transfectants harvested at different time points after treatment with cycloheximide (CHX) 10 μg/ml were analyzed by immunoblot. (B) LC-MS/MS quantification of the m^6A/A ratio in mRNA of A375 stable transfectants. (C) After 8 h treatment with 10 μM PD0325901 or 0.1 μM tramentib, cell lysates from A375 cells were analyzed by immunoblot. (D) LC-MS/MS quantification of the m^6A/A ratio in mRNA of A375 cells treated with 10 μM PD0325901 or 0.1 μM tramentib for 48 h. (E) After 8hr treatment with 10 μM EOAI3402143 (EOAI) or 30 μM vialinin A , cell lysates from A375 cells were analyzed by immunoblot. (F) A375 stable transfectants as indicated were treated with 3 μM EOAI3402143 (EOAI) or 10 μM vialinin A before measuring cell viability by SRB assay. Data are presented as relative to the R-WT cells without drug treatment (n=3 per group, data represent mean±SEM). (G) Immunofluorescence analysis of METTL3 (green) in SKBR3 cells treated with 1 μM tucatinib and 1 μM lapatinib for 8 hr. DAPI (blue) was used to mark the nucleus. (H) LC-MS/MS quantification of the m^6A/A ratio in mRNA of SKBR3 and BT474 cells treated with 1 μM tucatinib and 1 μM lapatinib for 48 h. (See also FIG. 14.)
FIGS. 11A-11G: USP5 is Required for ERK-Mediated METTL3 Stabilization. (A) A375 cells transfected with HA-ubiquitin (ub) were treated with 10 μM MG-132 and MEK inhibitor PD0325901 for 8 h. The ubiquitination of METTL3 was detected by IP with anti-METTL3 and immunoblot with anti-HA. (B) After 8 h treatment with 10 μM PD0325901 with or without 10 μM MG-132, cell lysates from A375 cells were analyzed by immunoblot. (C) A375 cells were treated with various concentrations of PD0325901 for 1 h. Cell lysates were subjected to IP with METTL3 antibody followed by immunoblot. (D) 293T cells transfected as indicated were subjected to IP/immunoblot analysis. (E) Immunofluorescence analysis of myc-METTL3 (green) in mESC stable transfectants. DAPI (blue) was used to mark the nucleus. (F) Lysates of 293T cells transfected as indicated were subjected to IP with anti-Flag antibody followed by immunoblot. (G) Immunofluorescence analysis of 293T cells co-transfected with myc-METTL3 (green), Flag-USP5 (red) with or without constitutively active B-RAF.
Immunoprecipitation, immunoblotting, and in vitro kinase assay. Immunoprecipitation (IP) and immunoblotting (IB) were performed as previously described (Sun et al., 2016). In brief, protein samples were isolated from respective cells by lysis in RIPA buffer (1% Triton X-100, 150 mM NaCl, 20 mM Na2PO4, pH 7.4) containing Halt Protease and Phosphatase Inhibitor Cocktail (Thermo Scientific). Subsequently, a BCA assay (Thermo Scientific) was used to determine the protein concentrations. For IP, indicated antibody and protein A/G magnetic beads (Thermo Scientific) were incubated with lysate at 4° C. overnight followed by washing and elution with sample buffer. Equal amounts of protein were separated by SDS-PAGE followed by wet transfer to PVDF membranes. Blots were blocked with 5% non-fat milk or BSA and incubated with respective primary antibody at 4° C. overnight. Primary antibodies were detected by HRP-linked secondary antibodies (Cell Signaling) together with SuperSignal West Pico Plus chemiluminescent substrate (Thermo Scientific) and imaged in a FluorChem R system (ProteinSimple).

[2] = test system: pluripotency transcripts in R-WT mESCs; experiment: Turnover of m^6A-labeled pluripotency transcripts by qPCR after actinomycin D in mESCs; format: cell-based, mouse; details: 10 μM PD0325901, 5 μg/ml actinomycin D
From the text: FIGS. 4A-4E: Phosphorylation of METTL3/WTAP by ERK Facilitates Resolution of Pluripotency. (A) LC-MS/MS quantification of the m^6A/A ratio in mRNA of mESC stable transfectants. (B) Representative flow cytometry analyses of mESC stable transfectants for the activity of alkaline phosphatase (AP) and expression of stage-specific embryonic antigen-1 (SSEA-1). (C) qPCR analysis of pluripotency genes in R-3A2A versus R-WT mESCs. (D) Relative levels of Nanog, measured by qPCR, at the indicate times after 5 μg/ml actinomycin D treatment. mRNA levels were monitored in R-WT (black), R-WT with 10 μM PD0325901 (green), and R-3A2A (red) mESC. (E) qPCR analysis for pluripotency and differentiation markers expression after 8 days of embryonic body (EB) induction. Error bars indicated SD (n=3). (See also FIG. 12.)
FIGS. 12A-12I: Phosphorylation of METTL3/WTAP by ERK Facilitates Resolution of Pluripotency. (A) Representative phase-contrast microscopy showing colony size of R-3A2A versus R-WT mESC cells. (B) Cell growth of R-WT and R-3A2A mESCs were measured by sulforhodamine B dye (SRB assay). […] (D-H) Relative levels of Zfp42, Klf2, Sox2, Lefty1, and Pou5f 1, measured by qPCR, at the indicate times after 5 μg/ml actinomycin D treatment. mRNA levels were monitored in R-WT (black), R-WT with 10 μM PD0325901 (green), and R-3A2A (red) mESCs. […]

## O=C(NOC[C@H](O)CO)c1ccc(F)c(F)c1Nc1ccc(I)cc1F [PD0325901]
[1]; A375 cells, 10 μM PD0325901, 8 h
  degradation of METTL3: increased
[1]; A375 melanoma cells, 8 h, 10 μM PD0325901 or 0.1 μM trametinib
  protein levels of the m^6A methyltransferase complex: reduce
[2]
  turnover of m^6A-labeled pluripotency transcripts after transcription arrest: delayed turnover
